Measurements taken from PubChem BioAssay (NCI).
“And” between values parts separate entries of the source, which are not always exact repeats. Equal entries are not always repeated.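 Assay format: 96-well plates, 48-hour exposure. Here, GI50 denotes the concentration required for 50% inhibition of growth. TGI denotes the concentration required for complete inhibition of growth.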

Experiments:
Test in all cases: NCI tumour cell line growth inhibition, 48 h
786-0 renal = tested on: 786-0 renal
A498 renal = tested on: A498 renal
A549 NSCLC = tested on: A549 NSCLC
ACHN renal = tested on: ACHN renal
BT-549 breast = tested on: BT-549 breast
CAKI-1 renal = tested on: CAKI-1 renal
CCRF-CEM leukemia = tested on: CCRF-CEM leukemia
COLO 205 colon = tested on: COLO 205 colon
DU-145 prostate = tested on: DU-145 prostate
EKVX NSCLC = tested on: EKVX NSCLC
HCC-2998 colon = tested on: HCC-2998 colon
HCT-116 colon = tested on: HCT-116 colon
HCT-15 colon = tested on: HCT-15 colon
HL-60(TB) leukemia = tested on: HL-60(TB) leukemia
HOP-62 NSCLC = tested on: HOP-62 NSCLC
HOP-92 NSCLC = tested on: HOP-92 NSCLC
HS 578T breast = tested on: HS 578T breast
HT29 colon = tested on: HT29 colon
IGROV1 ovarian = tested on: IGROV1 ovarian
K-562 leukemia = tested on: K-562 leukemia
KM12 colon = tested on: KM12 colon
LOX IMVI melanoma = tested on: LOX IMVI melanoma
M14 melanoma = tested on: M14 melanoma
MALME-3M melanoma = tested on: MALME-3M melanoma
MCF7 breast = tested on: MCF7 breast
MDA-MB-231 breast = tested on: MDA-MB-231 breast
MDA-MB-435 = tested on: MDA-MB-435
MOLT-4 leukemia = tested on: MOLT-4 leukemia
NCI-H226 lung = tested on: NCI-H226 lung
NCI-H23 lung = tested on: NCI-H23 lung
NCI-H460 lung = tested on: NCI-H460 lung
NCI-H522 lung = tested on: NCI-H522 lung
NCI/ADR-RES ovarian = tested on: NCI/ADR-RES ovarian
OVCAR-3 ovarian = tested on: OVCAR-3 ovarian
OVCAR-4 ovarian = tested on: OVCAR-4 ovarian
OVCAR-5 ovarian = tested on: OVCAR-5 ovarian
OVCAR-8 ovarian = tested on: OVCAR-8 ovarian
PC-3 prostate = tested on: PC-3 prostate
RPMI-8226 leukemia = tested on: RPMI-8226 leukemia
RXF 393 renal = tested on: RXF 393 renal
SF-268 CNS = tested on: SF-268 CNS
SF-295 CNS = tested on: SF-295 CNS
SF-539 CNS = tested on: SF-539 CNS
SK-MEL-2 melanoma = tested on: SK-MEL-2 melanoma
SK-MEL-28 melanoma = tested on: SK-MEL-28 melanoma
SK-MEL-5 melanoma = tested on: SK-MEL-5 melanoma
SK-OV-3 ovarian = tested on: SK-OV-3 ovarian
SN12C renal = tested on: SN12C renal
SNB-19 CNS = tested on: SNB-19 CNS
SNB-75 CNS = tested on: SNB-75 CNS
SR leukemia = tested on: SR leukemia
SW-620 colon = tested on: SW-620 colon
T-47D breast = tested on: T-47D breast
TK-10 renal = tested on: TK-10 renal
U251 CNS = tested on: U251 CNS
UACC-257 melanoma = tested on: UACC-257 melanoma
UACC-62 melanoma = tested on: UACC-62 melanoma
UO-31 renal = tested on: UO-31 renal

CN1CCN(c2ccc3nc(-c4c(N)c5c(F)cccc5[nH]c4=O)[nH]c3c2)CC1
GI50 (786-0 renal): 1200 nM and 695 nM and 946 nM | TGI (786-0 renal): 3930 nM and > 3840 nM and 3070 nM | GI50 (A498 renal): 224 nM and 144 nM and 135 nM | GI50 (A549 NSCLC): 594 nM and 451 nM and 674 nM | TGI (A549 NSCLC): 2150 nM and > 3740 nM and 3860 nM | GI50 (ACHN renal): 335 nM and 342 nM and 371 nM | TGI (ACHN renal): 1830 nM and > 6360 nM and 4740 nM | GI50 (BT-549 breast): 1620 nM and 501 nM and 1260 nM | TGI (BT-549 breast): 10200 nM and > 2970 nM and 5950 nM | GI50 (CAKI-1 renal): 213 nM and 282 nM and 387 nM | TGI (CAKI-1 renal): 1570 nM and > 10000 nM and 12500 nM | GI50 (CCRF-CEM leukemia): 834 nM and 684 nM and 1010 nM | TGI (CCRF-CEM leukemia): 7930 nM and > 5890 nM and 9410 nM | GI50 (COLO 205 colon): 965 nM and 496 nM and 2260 nM | TGI (COLO 205 colon): 2310 nM and > 2040 nM and 17200 nM | GI50 (DU-145 prostate): 991 nM and 547 nM and 1060 nM | TGI (DU-145 prostate): 2970 nM and > 6530 nM and 9590 nM | GI50 (EKVX NSCLC): 2380 nM and > 2440 nM and 4230 nM | TGI (EKVX NSCLC): 9650 nM and > 7220 nM and 16200 nM | GI50 (HCC-2998 colon): 1330 nM and 867 nM and 1360 nM | TGI (HCC-2998 colon): 5240 nM and > 4090 nM and 6580 nM | GI50 (HCT-116 colon): 619 nM and 466 nM and 992 nM | TGI (HCT-116 colon): 1930 nM and 4350 nM and 2400 nM | GI50 (HCT-15 colon): 495 nM and 419 nM and 485 nM | TGI (HCT-15 colon): 5430 nM and > 7050 nM and 7760 nM | GI50 (HL-60(TB) leukemia): 860 nM and 314 nM and 1200 nM | TGI (HL-60(TB) leukemia): 2800 nM and 2360 nM and 3120 nM | GI50 (HOP-62 NSCLC): 1080 nM and 829 nM and 1580 nM | TGI (HOP-62 NSCLC): 2700 nM and > 3730 nM and 8180 nM | GI50 (HOP-92 NSCLC): 621 nM and 422 nM and 645 nM | TGI (HOP-92 NSCLC): 4560 nM and > 2930 nM and 5820 nM | GI50 (HS 578T breast): 791 nM and 286 nM and 974 nM | TGI (HS 578T breast): 5770 nM and > 2370 nM and 9750 nM | GI50 (HT29 colon): 909 nM and 663 nM and 1430 nM | TGI (HT29 colon): 2890 nM and > 5420 nM and 11200 nM | GI50 (IGROV1 ovarian): 325 nM and 272 nM and 302 nM | TGI (IGROV1 ovarian): 4940 nM and > 3980 nM and 11800 nM | GI50 (K-562 leukemia): 598 nM and 528 nM and 932 nM | TGI (K-562 leukemia): 2620 nM and 2320 nM and 4910 nM | GI50 (KM12 colon): 35.7 nM and 40.6 nM and 40.7 nM | TGI (KM12 colon): 2070 nM and > 3510 nM and 7500 nM | GI50 (LOX IMVI melanoma): 478 nM and 410 nM and 769 nM | TGI (LOX IMVI melanoma): 1860 nM and 1480 nM and 2140 nM | GI50 (M14 melanoma): 410 nM and 340 nM and 445 nM | TGI (M14 melanoma): 1710 nM and 1540 nM and 1930 nM | GI50 (MALME-3M melanoma): 901 nM and 498 nM and 547 nM | TGI (MALME-3M melanoma): 2460 nM and 1750 nM and 1970 nM | GI50 (MCF7 breast): 875 nM and 710 nM and 1210 nM | TGI (MCF7 breast): 2780 nM and > 4820 nM and 6760 nM | GI50 (MDA-MB-231 breast): 1320 nM and 1140 nM and 2050 nM | TGI (MDA-MB-231 breast): 5000 nM and > 4190 nM and 8570 nM | GI50 (MDA-MB-435): 974 nM and 535 nM and 1080 nM | TGI (MDA-MB-435): 2340 nM and 1850 nM and 2610 nM | GI50 (MOLT-4 leukemia): 392 nM and 322 nM and 420 nM | TGI (MOLT-4 leukemia): 3600 nM and 1520 nM and 4540 nM | GI50 (NCI-H226 lung): 525 nM and 476 nM and 537 nM | TGI (NCI-H226 lung): 8360 nM and > 6970 nM and 17600 nM | GI50 (NCI-H23 lung): 1530 nM and 900 nM and 2050 nM | TGI (NCI-H23 lung): 6440 nM and > 3600 nM and 11100 nM | GI50 (NCI-H460 lung): 369 nM and 344 nM and 454 nM | TGI (NCI-H460 lung): 1720 nM and 1790 nM and 2200 nM | GI50 (NCI-H522 lung): 999 nM and 398 nM and 2290 nM | TGI (NCI-H522 lung): 2870 nM and > 2300 nM and 11700 nM | GI50 (NCI/ADR-RES ovarian): 1770 nM and 2640 nM and 2470 nM | TGI (NCI/ADR-RES ovarian): 7180 nM and > 10000 nM and 13000 nM | GI50 (OVCAR-3 ovarian): 1470 nM and 1270 nM and 3200 nM | TGI (OVCAR-3 ovarian): 2960 nM and > 8270 nM and 8900 nM | GI50 (OVCAR-4 ovarian): 622 nM and 498 nM and 646 nM | TGI (OVCAR-4 ovarian): 4550 nM and > 10000 nM and 10900 nM | GI50 (OVCAR-5 ovarian): 1420 nM and 1030 nM and 1760 nM | TGI (OVCAR-5 ovarian): 3940 nM and > 6960 nM and 6940 nM | GI50 (OVCAR-8 ovarian): 1260 nM and 874 nM and 1670 nM | TGI (OVCAR-8 ovarian): 3210 nM and > 5170 nM and 12500 nM | GI50 (PC-3 prostate): 1160 nM and 1020 nM and 1730 nM | TGI (PC-3 prostate): 7100 nM and > 7420 nM and 8590 nM | GI50 (RPMI-8226 leukemia): 1170 nM and 909 nM and 1570 nM | TGI (RPMI-8226 leukemia): 3740 nM and > 2770 nM and 4530 nM | GI50 (RXF 393 renal): 216 nM and 212 nM and 282 nM | TGI (RXF 393 renal): 1190 nM and 632 nM and 1180 nM | GI50 (SF-268 CNS): 1390 nM and 717 nM and 1650 nM | TGI (SF-268 CNS): 4160 nM and > 2830 nM and 10100 nM | GI50 (SF-295 CNS): 2410 nM and 1090 nM and 3140 nM | TGI (SF-295 CNS): 8100 nM and > 6690 nM and 8950 nM | GI50 (SF-539 CNS): 566 nM and 338 nM and 487 nM | TGI (SF-539 CNS): 1960 nM and 1210 nM and 1750 nM | GI50 (SK-MEL-2 melanoma): 419 nM and 400 nM and 936 nM | TGI (SK-MEL-2 melanoma): 5410 nM and > 2240 nM and 22800 nM | GI50 (SK-MEL-28 melanoma): 1510 nM and 801 nM and 1430 nM | TGI (SK-MEL-28 melanoma): 2960 nM and 2790 nM and 3020 nM | GI50 (SK-MEL-5 melanoma): 1330 nM and 604 nM and 1720 nM | TGI (SK-MEL-5 melanoma): 2640 nM and 1290 nM and 3160 nM | GI50 (SK-OV-3 ovarian): 379 nM and 487 nM and 515 nM | GI50 (SN12C renal): 413 nM and 393 nM and 620 nM | TGI (SN12C renal): 5300 nM and > 5120 nM and 5820 nM | GI50 (SNB-19 CNS): 1900 nM and > 1970 nM and 2560 nM | TGI (SNB-19 CNS): 8890 nM and > 10000 nM and 12600 nM | GI50 (SNB-75 CNS): 695 nM and 399 nM and 994 nM | TGI (SNB-75 CNS): 2640 nM and 8040 nM and 5680 nM | GI50 (SR leukemia): 472 nM and 284 nM and 502 nM | TGI (SR leukemia): 10200 nM and 1440 nM and 7970 nM | GI50 (SW-620 colon): 533 nM and 379 nM and 576 nM | TGI (SW-620 colon): 1940 nM and 3210 nM and 2650 nM | GI50 (T-47D breast): 4040 nM and 12000 nM | TGI (T-47D breast): 10100 nM and > 6230 nM and 31900 nM | GI50 (TK-10 renal): 1140 nM and 1010 nM and 3560 nM | TGI (TK-10 renal): 4950 nM and > 4670 nM and 16800 nM | GI50 (U251 CNS): 1020 nM and 652 nM and 780 nM | TGI (U251 CNS): 2450 nM and > 3320 nM and 3490 nM | GI50 (UACC-257 melanoma): 1690 nM and 830 nM and 2540 nM | TGI (UACC-257 melanoma): 3260 nM and 2390 nM and 8320 nM | GI50 (UACC-62 melanoma): 1190 nM and 1280 nM and 2130 nM | TGI (UACC-62 melanoma): 6050 nM and > 2900 nM and 10000 nM | GI50 (UO-31 renal): 347 nM and 224 nM and 232 nM | TGI (UO-31 renal): 1910 nM and > 2800 nM and 1540 nM
